Results as given in the CheMixHub viscosity set.
± gives the uncertainty stated by the source.

Assay: xn = mol fraction of the nth substance listed

C=CC#N + CO
viscosity [mPa·s], 101.33 kPa
Conditions	x1 = 0.1021	x1 = 0.2197	x1 = 0.302	x1 = 0.4017	x1 = 0.5035	x1 = 0.6614	x1 = 0.6991	x1 = 0.7966	x1 = 0.8985
298.15 K	0.483 ± 0.007	0.435 ± 0.007	0.41 ± 0.006	0.388 ± 0.006	0.367 ± 0.006	0.351 ± 0.006	0.346 ± 0.006	0.34 ± 0.005	0.338 ± 0.005
303.15 K	0.453 ± 0.007	0.41 ± 0.006	0.387 ± 0.006	0.367 ± 0.006	0.354 ± 0.006	0.337 ± 0.005	0.329 ± 0.005	0.325 ± 0.005	0.322 ± 0.005
308.15 K	0.428 ± 0.006	0.387 ± 0.006	0.366 ± 0.006	0.348 ± 0.006	0.331 ± 0.005	0.318 ± 0.005	0.315 ± 0.005	0.311 ± 0.005	0.309 ± 0.005

CC(=O)CC(C)=O + CO
303.15 K, 101 kPa
Conditions	viscosity [mPa·s]
x1 = 0.0502	0.51 ± 0.004
x1 = 0.1002	0.516 ± 0.004
x1 = 0.3002	0.547 ± 0.004
x1 = 0.5	0.579 ± 0.004
x1 = 0.6983	0.611 ± 0.004
x1 = 0.9004	0.645 ± 0.005
x1 = 0.9511	0.655 ± 0.005

CC(=O)[O-].CCCC[NH3+] + CO
101.3 kPa
Conditions	viscosity [mPa·s]
293.15 K, x1 = 0.7993	256.5 ± 15
298.15 K, x1 = 0.8988	312.5 ± 19

CCC(C)(C)O + CO
298.15 K, 101.33 kPa
Conditions	viscosity [mPa·s]
x2 = 0.1504	3.673 ± 0.03
x2 = 0.2963	3.295 ± 0.027
x2 = 0.3807	2.941 ± 0.024
x2 = 0.4164	2.789 ± 0.023
x2 = 0.4914	2.41 ± 0.021
x2 = 0.6011	1.88 ± 0.018
x2 = 0.7145	1.404 ± 0.015
x2 = 0.7989	1.074 ± 0.013
x2 = 0.8988	0.788 ± 0.012

CCCCC(C)O (stereo not given) + CO
298.15 K, 101.33 kPa
Conditions	viscosity [mPa·s]
x2 = 0.1062	3.747 ± 0.034
x2 = 0.2053	3.337 ± 0.03
x2 = 0.3128	2.892 ± 0.026
x2 = 0.412	2.43 ± 0.022
x2 = 0.5053	2.04 ± 0.019
x2 = 0.6071	1.647 ± 0.015
x2 = 0.703	1.315 ± 0.012
x2 = 0.8146	0.9858 ± 0.0095
x2 = 0.9006	0.7707 ± 0.0076

Cc1ccc(C(C)C)cc1 + CO
293.15 K, 101 kPa
Conditions	viscosity [mPa·s]
x2 = 0.2	0.799 ± 0.016
x2 = 0.4	0.793 ± 0.015
x2 = 0.6	0.793 ± 0.015
x2 = 0.7	0.774 ± 0.015
x2 = 0.8	0.732 ± 0.014

Cn1ccnc1 + CO
viscosity [mPa·s]
Conditions	298.15 K	308.15 K	318.15 K
100 kPa, x1 = 0.0511	0.6235 ± 0.025	0.5549 ± 0.023	0.4923 ± 0.02
100 kPa, x1 = 0.1008	0.7071 ± 0.029	0.6136 ± 0.025	0.5376 ± 0.022
100 kPa, x1 = 0.1961	0.8597 ± 0.035	0.7399 ± 0.03	0.6379 ± 0.026
100 kPa, x1 = 0.279	0.9763 ± 0.04	0.8372 ± 0.034	0.7265 ± 0.03
100 kPa, x1 = 0.3965	1.159 ± 0.047	0.9854 ± 0.04	0.849 ± 0.035
100 kPa, x1 = 0.5013	1.298 ± 0.053	1.098 ± 0.045	0.942 ± 0.039
100 kPa, x1 = 0.6101	1.429 ± 0.059	1.203 ± 0.049	1.029 ± 0.042
100 kPa, x1 = 0.6941	1.514 ± 0.062	1.277 ± 0.053	1.088 ± 0.045
100 kPa, x1 = 0.7955	1.607 ± 0.066	1.348 ± 0.056	1.151 ± 0.047
100 kPa, x1 = 0.8414	1.645 ± 0.068	1.377 ± 0.057	1.174 ± 0.048
100 kPa, x1 = 0.9501	1.727 ± 0.071	1.445 ± 0.06	1.23 ± 0.051
101 kPa, x1 = 0.0502	–	0.5358 ± 0.0043	–
101 kPa, x1 = 0.1011	–	0.5959 ± 0.0047	–
101 kPa, x1 = 0.2	–	0.7153 ± 0.0054	–
101 kPa, x1 = 0.3006	–	0.8325 ± 0.0063	–
101 kPa, x1 = 0.4	–	0.9415 ± 0.0072	–
101 kPa, x1 = 0.4999	–	1.039 ± 0.008	–
101 kPa, x1 = 0.5999	–	1.128 ± 0.0088	–
101 kPa, x1 = 0.7002	–	1.207 ± 0.0096	–
101 kPa, x1 = 0.7985	–	1.278 ± 0.01	–
101 kPa, x1 = 0.8958	–	1.336 ± 0.011	–
101 kPa, x1 = 0.9433	–	1.359 ± 0.011	–

[2H]O[2H] + CO
298.15 K, 101 kPa
Conditions	viscosity [mPa·s]
x2 = 0.0449	1.386 ± 0.011
x2 = 0.0748	1.535 ± 0.012
x2 = 0.1437	1.783 ± 0.013
x2 = 0.2044	1.893 ± 0.014
x2 = 0.3143	1.872 ± 0.014
x2 = 0.4238	1.711 ± 0.013

Cc1ccc(C(C)C)cc1 + COC(C)(C)C
298.15 K, 101.33 kPa
Conditions	viscosity [mPa·s]
x2 = 0.0616	0.7751 ± 0.0071
x2 = 0.1556	0.7225 ± 0.0067
x2 = 0.3301	0.6338 ± 0.006
x2 = 0.4987	0.5524 ± 0.0055
x2 = 0.5665	0.5253 ± 0.0054
x2 = 0.6911	0.4605 ± 0.0051
x2 = 0.7665	0.4272 ± 0.005
x2 = 0.8304	0.3998 ± 0.0049
x2 = 0.8734	0.3814 ± 0.0048
x2 = 0.9298	0.3583 ± 0.0047
x2 = 0.9644	0.3467 ± 0.0047
